Data from ChEMBL document CHEMBL5325432, “Systematic study of 1,2,3-triazolyl sterols for the development of new drugs against parasitic Neglected Tropical Diseases” (Eur J Med Chem, 2023).

Assays:
[1] = Cytotoxicity against human MRC5 cells incubated for 7 days by MTT colorimetric assay; assay type: toxicity, cell-based
[2] = Selectivity index, ratio of IC50 for cytotoxicity against African green monkey Vero cells to IC50 for antiparasitic activity against Trypanosoma brucei assessed as parasite growth inhibition; assay type: toxicity, cell-based; details: read-out: Ratio IC50
[3] = tested on: Trypanosoma brucei; assay: Antiparasitic activity against Trypanosoma brucei assessed as parasite growth inhibition incubated for 3 days by Alamar blue assay; assay type: functional, organism-based; details: 72 h
[4] = tested on: Trypanosoma cruzi; assay: Antiparasitic activity against Trypanosoma cruzi epimastigotes assessed as parasite growth inhibition incubated for 14 days by Alamar blue assay; assay type: functional, organism-based; details: 336 h
[5] = Selectivity index, ratio of IC50 for cytotoxicity against African green monkey Vero cells to IC50 for antiparasitic activity against Trypanosoma cruzi epimastigotes assessed as parasite growth inhibition; assay type: toxicity, cell-based; details: read-out: Ratio IC50
[6] = tested on: Leishmania donovani; assay: Antileishmanial activity against Leishmania donovani S1 promastigotes assessed as parasite growth inhibition incubated for 72 hrs by Alamar blue assay; assay type: functional, organism-based; details: S1, 72 h
[7] = Selectivity index, ratio of IC50 for cytotoxicity against African green monkey Vero cells to IC50 for antileishmanial activity against Leishmania donovani S1 promastigotes assessed as parasite growth inhibition; assay type: toxicity, cell-based; details: read-out: Ratio IC50
[8] = Cytotoxicity against African green monkey Vero cells incubated for 48 hrs; assay type: toxicity, cell-based; details: African green monkey (Chlorocebus sabaeus)

| Structure (SMILES) | IC50 at 7 days [1] | selectivity ratio [2] | IC50 [3] | IC50 [4] | selectivity ratio [5] | IC50 [6] | selectivity ratio [7] | IC50 at 48 h [8] |
| --- | --- | --- | --- | --- | --- | --- | --- | --- |
| Nc1nc(N)nc(Nc2ccc([As]3SCC(CO)S3)cc2)n1 (configuration not stated) [MELARSOPROL] | 12500 nM | 62.5 | – | – | – | – | – | – |
| C[C@H](NCc1cn(Cc2ccccc2)nn1)[C@H]1CC[C@H]2[C@@H]3CC=C4C[C@@H](O)CC[C@]4(C)[C@H]3CC[C@]12C | – | > 15 | 680 nM | 330 nM | > 31 | 1330 nM | > 7.69 | > 10200 nM |
| CCCCCCCCn1cc(CNC[C@](C)(O)[C@H]2CC[C@H]3[C@@H]4CC=C5C[C@@H](O)CC[C@]5(C)[C@H]4CC[C@@]32C)nn1 | – | > 14.7 | 630 nM | 8130 nM | > 1.14 | 1460 nM | > 6.33 | > 9240 nM |
| CC(C)=CCC/C(C)=C/Cn1cc(CNC[C@](C)(O)[C@H]2CC[C@H]3[C@@H]4CC=C5C[C@@H](O)CC[C@]5(C)[C@H]4CC[C@@]32C)nn1 | – | > 13.6 | 650 nM | 9000 nM | > 0.98 | 780 nM | > 11.4 | > 8850 nM |
| CCCCCCCCn1cc(CN[C@@H](C)[C@H]2CC[C@H]3[C@@H]4CC=C5C[C@@H](O)CC[C@]5(C)[C@H]4CC[C@]23C)nn1 | – | > 17.8 | 550 nM | 1950 nM | > 5.02 | 1470 nM | > 6.67 | > 9790 nM |
| C[C@]12CC[C@H]3[C@@H](CC=C4C[C@@H](O)CC[C@@]43C)[C@@H]1CC[C@@H]2[C@@](C)(O)CNCc1cn(Cc2ccccc2)nn1 | – | > 80.3 | 120 nM | 8280 nM | > 1.16 | 1950 nM | > 4.95 | > 9640 nM |
